# Laboratory results reported in ChEMBL document CHEMBL3885881, “DrugMatrix”.
# Starred links: 1 amine or outer side, 2 acyl side, 3 side chain; linkers in the order of their positions; H or OH if unused. Positions of bridges follow the written chain, without caps; N, C: chain ends. Non-standard residues stand in square brackets, D forms with d. Residues, ends and D or L forms follow the SMILES beside them. Chains are numbered I, II in the order given. Actinocin(9to1) = Cc1c2oc3c(C)ccc(C(=O)[*:1])c3nc-2c(C(=O)[*:2])c(N)c1=O; NMeV = CN[C@H](C(=O)O)C(C)C; Sar = CNCC(=O)O
# Species on record: Rattus norvegicus
# Test: DrugMatrix - Regimen: Daily Repeat
# Assay type: toxicity, organism-based, Sprague-Dawley
# Parameters: regimen Daily Repeat, gender Male, age 6-8 weeks
# Conditions: in vivo, iv, vehicle 100 % SALINE; for ABSOLUTE BASOPHIL / ABSOLUTE EOSINOPHIL / ABSOLUTE LYMPHOCYTE / ABSOLUTE MONOCYTE / ABSOLUTE SEGMENTED NEUTROPHIL / BASOPHIL / EOSINOPHIL / ERYTHROCYTE COUNT / HEMATOCRIT / HEMOGLOBIN / LEUKOCYTE COUNT / LYMPHOCYTE / MEAN CORPUSCULAR HEMOGLOBIN / MEAN CORPUSCULAR HEMOGLOBIN CONCENTRATION / MEAN CORPUSCULAR VOLUME / MONOCYTE / NEUTROPHIL / NUCLEATED RED BLOOD CELLS / PLATELET COUNT: tissue Blood; for ALANINE AMINOTRANSFERASE / ALBUMIN / ALKALINE PHOSPHATASE / ASPARTATE AMINOTRANSFERASE / BLOOD UREA NITROGEN / CARBON DIOXIDE / CHLORIDE / CHOLESTEROL / CREATINE PHOSPHOKINASE / CREATININE / GLUCOSE / LACTATE DEHYDROGENASE / LIPASE / PHOSPHORUS / POTASSIUM / SODIUM / TOTAL BILIRUBIN / TOTAL PROTEIN / URIC ACID: tissue Plasma
# [1] = 0.006 mg/kg, 120 h, dose level Low, time 5 day
# [2] = 0.06 mg/kg, 72 h, dose level High, time 3 day
# [3] = 0.06 mg/kg, 120 h, dose level High, time 5 day
structure (smiles),measurement,setting,value
"Cc1c2oc3c(C)ccc(C(=O)N[C@@H]4C(=O)N[C@H](C(C)C)C(=O)N5CCC[C@H]5C(=O)N(C)CC(=O)N(C)[C@@H](C(C)C)C(=O)O[C@@H]4C)c3nc-2c(C(=O)N[C@@H]2C(=O)N[C@H](C(C)C)C(=O)N3CCC[C@H]3C(=O)N(C)CC(=O)N(C)[C@@H](C(C)C)C(=O)O[C@@H]2C)c(N)c1=O [DACTINOMYCIN] (I: T[dV]P[Sar][NMeV] / II: T[dV]P[Sar][NMeV]; ester I:1-I:C, II:1-II:C; linker I:N-II:N via Actinocin(9to1))",ABSOLUTE BASOPHIL,[1],0 CELLS/uL
same,ABSOLUTE EOSINOPHIL,[1],221.33 CELLS/uL
same,ABSOLUTE LYMPHOCYTE,[1],12705.67 CELLS/uL
same,ABSOLUTE MONOCYTE,[1],103.33 CELLS/uL
same,ABSOLUTE SEGMENTED NEUTROPHIL,[1],1369.67 CELLS/uL
same,BASOPHIL,[1],0%
same,EOSINOPHIL,[1],1.33%
same,ERYTHROCYTE COUNT,[1],5.39 x10E6/uL
same,HEMATOCRIT,[1],33.7%
same,HEMOGLOBIN,[1],13.67 G/DL
same,LEUKOCYTE COUNT,[1],14.4 x10E3/uL
same,LYMPHOCYTE,[1],88.67%
same,MEAN CORPUSCULAR HEMOGLOBIN,[1],25.37 pg
same,MEAN CORPUSCULAR HEMOGLOBIN CONCENTRATION,[1],40.57 G/DL
same,MEAN CORPUSCULAR VOLUME,[1],62.57 fL
same,MONOCYTE,[1],0.67%
same,NEUTROPHIL,[1],9.33%
same,NUCLEATED RED BLOOD CELLS,[1],0 /100WBC
same,PLATELET COUNT,[1],1209 x10E3/uL
same,ALANINE AMINOTRANSFERASE,[1],51 u/L
same,ALBUMIN,[1],4.1 G/DL
same,ALKALINE PHOSPHATASE,[1],297 u/L
same,ASPARTATE AMINOTRANSFERASE,[1],130.67 u/L
same,BLOOD UREA NITROGEN,[1],15 mg/dL
same,CARBON DIOXIDE,[1],27.33 mmol/L
same,CHLORIDE,[1],102 MEQ/L
same,CHOLESTEROL,[1],77 mg/dL
same,CREATINE PHOSPHOKINASE,[1],1455.33 u/L
same,CREATININE,[1],0.22 mg/dL
same,GLUCOSE,[1],155.33 mg/dL
same,LACTATE DEHYDROGENASE,[1],798.33 u/L
same,LIPASE,[1],10.33 u/L
same,PHOSPHORUS,[1],11.03 mg/dL
same,POTASSIUM,[1],5.31 MEQ/L
same,SODIUM,[1],143.1 MEQ/L
same,TOTAL BILIRUBIN,[1],0.17 mg/dL
same,TOTAL PROTEIN,[1],6.13 G/DL
same,URIC ACID,[1],1.37 mg/dL
same,ABSOLUTE BASOPHIL,[2],0 CELLS/uL
same,ABSOLUTE EOSINOPHIL,[2],0 CELLS/uL
same,ABSOLUTE LYMPHOCYTE,[2],13952.33 CELLS/uL
same,ABSOLUTE MONOCYTE,[2],166 CELLS/uL
same,ABSOLUTE SEGMENTED NEUTROPHIL,[2],748.33 CELLS/uL
same,BASOPHIL,[2],0%
same,EOSINOPHIL,[2],0%
same,ERYTHROCYTE COUNT,[2],5.81 x10E6/uL
same,HEMATOCRIT,[2],35.17%
same,HEMOGLOBIN,[2],13.97 G/DL
same,LEUKOCYTE COUNT,[2],14.87 x10E3/uL
same,LYMPHOCYTE,[2],93.67%
same,MEAN CORPUSCULAR HEMOGLOBIN,[2],24.13 pg
same,MEAN CORPUSCULAR HEMOGLOBIN CONCENTRATION,[2],39.8 G/DL
same,MEAN CORPUSCULAR VOLUME,[2],60.7 fL
same,MONOCYTE,[2],1%
same,NEUTROPHIL,[2],5.33%
same,NUCLEATED RED BLOOD CELLS,[2],0 /100WBC
same,PLATELET COUNT,[2],1121.67 x10E3/uL
same,ALANINE AMINOTRANSFERASE,[2],41.67 u/L
same,ALBUMIN,[2],4.4 G/DL
same,ALKALINE PHOSPHATASE,[2],262.67 u/L
same,ASPARTATE AMINOTRANSFERASE,[2],85.33 u/L
same,BLOOD UREA NITROGEN,[2],15.67 mg/dL
same,CARBON DIOXIDE,[2],26 mmol/L
same,CHLORIDE,[2],99.67 MEQ/L
same,CHOLESTEROL,[2],81.33 mg/dL
same,CREATINE PHOSPHOKINASE,[2],562.67 u/L
same,CREATININE,[2],0.16 mg/dL
same,GLUCOSE,[2],154.33 mg/dL
same,LACTATE DEHYDROGENASE,[2],357.33 u/L
same,LIPASE,[2],10.33 u/L
same,PHOSPHORUS,[2],11.93 mg/dL
same,POTASSIUM,[2],6.38 MEQ/L
same,SODIUM,[2],140.17 MEQ/L
same,TOTAL BILIRUBIN,[2],0.2 mg/dL
same,TOTAL PROTEIN,[2],6.13 G/DL
same,URIC ACID,[2],1.6 mg/dL
same,ABSOLUTE BASOPHIL,[3],0 CELLS/uL
same,ABSOLUTE EOSINOPHIL,[3],0 CELLS/uL
same,ABSOLUTE LYMPHOCYTE,[3],13429.67 CELLS/uL
same,ABSOLUTE MONOCYTE,[3],267.67 CELLS/uL
same,ABSOLUTE SEGMENTED NEUTROPHIL,[3],1069.33 CELLS/uL
same,BASOPHIL,[3],0%
same,EOSINOPHIL,[3],0%
same,ERYTHROCYTE COUNT,[3],5.63 x10E6/uL
same,HEMATOCRIT,[3],35%
same,HEMOGLOBIN,[3],13.77 G/DL
same,LEUKOCYTE COUNT,[3],14.77 x10E3/uL
same,LYMPHOCYTE,[3],90.67%
same,MEAN CORPUSCULAR HEMOGLOBIN,[3],24.5 pg
same,MEAN CORPUSCULAR HEMOGLOBIN CONCENTRATION,[3],39.37 G/DL
same,MEAN CORPUSCULAR VOLUME,[3],62.17 fL
same,MONOCYTE,[3],1.67%
same,NEUTROPHIL,[3],7.67%
same,NUCLEATED RED BLOOD CELLS,[3],0 /100WBC
same,PLATELET COUNT,[3],1163.67 x10E3/uL
same,ALANINE AMINOTRANSFERASE,[3],41 u/L
same,ALBUMIN,[3],4.2 G/DL
same,ALKALINE PHOSPHATASE,[3],279.33 u/L
same,ASPARTATE AMINOTRANSFERASE,[3],79.33 u/L
same,BLOOD UREA NITROGEN,[3],19.33 mg/dL
same,CARBON DIOXIDE,[3],29 mmol/L
same,CHLORIDE,[3],99.67 MEQ/L
same,CHOLESTEROL,[3],62.33 mg/dL
same,CREATINE PHOSPHOKINASE,[3],327.33 u/L
same,CREATININE,[3],0.23 mg/dL
same,GLUCOSE,[3],148.67 mg/dL
same,LACTATE DEHYDROGENASE,[3],429.67 u/L
same,LIPASE,[3],10 u/L
same,PHOSPHORUS,[3],12.3 mg/dL
same,POTASSIUM,[3],6.67 MEQ/L
same,SODIUM,[3],140.87 MEQ/L
same,TOTAL BILIRUBIN,[3],0.23 mg/dL
same,TOTAL PROTEIN,[3],6.2 G/DL
same,URIC ACID,[3],1.7 mg/dL
